Laboratory results taken from ChEMBL document CHEMBL1201862, “PubChem BioAssay data set” (2004).
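In this assay, cells in 96-well plates receive the compound at five concentrations for 48 hours. Endpoints are linearly interpolated between the surrounding concentrations. GI50 = concentration required for 50% inhibition of growth.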 The source made the active and inactive calls. No stated cut-off is given here; in the data, active = GI50 up to about 1.1 µM and inactive = higher.

Columns and labels:
Experiment in all cases: NCI-60 cell line screen, 48 h
HOP-62 = test system: HOP-62
HCT-116 = test system: HCT-116
LOX IMVI = test system: LOX IMVI
OVCAR-8 = test system: OVCAR-8
RPMI-8226 = test system: RPMI-8226
U-251 = test system: U-251
DU-145 = test system: DU-145
COLO 205 = test system: COLO 205
NCI-H23 = test system: NCI-H23
M14 = test system: M14
SK-MEL-5 = test system: SK-MEL-5
NCI-H460 = test system: NCI-H460
Hs-578T = test system: Hs-578T
BT-549 = test system: BT-549
RXF 393 = test system: RXF 393
NCI-H522 = test system: NCI-H522
MCF7 = test system: MCF7
HCC 2998 = test system: HCC 2998
UACC-62 = test system: UACC-62
K562 = test system: K562

Measured: GI50

CC1(C)CC(=O)C2=C(C1)OC1(CC2c2ccc(Cl)cc2)CC(c2ccc(Cl)cc2)C2=C(CC(C)(C)CC2=O)O1 (stereo not given)
inactive: HOP-62 15.6 µM | HCT-116 12.2 µM | LOX IMVI 20.4 µM | OVCAR-8 24.7 µM | RPMI-8226 9.46 µM | U-251 22.5 µM | DU-145 19.6 µM | COLO 205 16 µM | NCI-H23 16.3 µM | M14 23.1 µM | SK-MEL-5 14.8 µM | NCI-H460 14.3 µM | Hs-578T 16.5 µM | BT-549 20.7 µM | RXF 393 26.1 µM | NCI-H522 11.3 µM | MCF7 12 µM | HCC 2998 16.3 µM | UACC-62 23.6 µM | K562 8.18 µM

O=C1c2ccccc2-c2ccc(/N=[N+](/[O-])c3ccc4c(c3)C(=O)c3ccccc3-4)cc21
inactive: HOP-62 71.4 µM | HCT-116 > 100 µM | LOX IMVI > 100 µM | OVCAR-8 > 100 µM | RPMI-8226 > 100 µM | U-251 > 100 µM | DU-145 > 100 µM | COLO 205 > 100 µM | NCI-H23 > 100 µM | M14 > 100 µM | SK-MEL-5 > 100 µM | NCI-H460 > 100 µM | Hs-578T > 100 µM | BT-549 > 100 µM | RXF 393 > 100 µM | NCI-H522 > 100 µM | MCF7 > 100 µM | HCC 2998 > 100 µM | UACC-62 > 100 µM | K562 > 100 µM

CCOP(=O)(OCC)C(Nc1ccc(F)cc1)c1cccc([N+](=O)[O-])c1 (stereo not given)
inactive: HOP-62 > 100 µM | HCT-116 46.8 µM | LOX IMVI > 100 µM | OVCAR-8 97.9 µM | RPMI-8226 76.9 µM | U-251 > 100 µM | DU-145 > 100 µM | COLO 205 70.5 µM | NCI-H23 > 100 µM | M14 79.1 µM | SK-MEL-5 83.9 µM | NCI-H460 65.9 µM | Hs-578T 82.8 µM | BT-549 89.3 µM | RXF 393 54.3 µM | NCI-H522 63.1 µM | MCF7 > 100 µM | HCC 2998 71.6 µM | UACC-62 54.8 µM | K562 38.9 µM

Cc1cc(C)c(C[C@H]2COC(=O)[C@]2(O)Cc2c(C)cc(C)cc2C)c(C)c1
inactive: HOP-62 19.2 µM | HCT-116 20.7 µM | LOX IMVI 17.8 µM | OVCAR-8 23.6 µM | RPMI-8226 25.2 µM | U-251 18.9 µM | DU-145 15.2 µM | COLO 205 18.7 µM | NCI-H23 21 µM | M14 18.3 µM | SK-MEL-5 17 µM | NCI-H460 16.8 µM | Hs-578T 17.7 µM | BT-549 18.4 µM | RXF 393 11.2 µM | NCI-H522 18.7 µM | MCF7 18.1 µM | HCC 2998 13.7 µM | UACC-62 13.7 µM | K562 25.2 µM

O=c1ccn([C@@H]2C[C@H]2CO)c(=O)[nH]1
inactive: HOP-62 > 100 µM | HCT-116 > 100 µM | LOX IMVI > 100 µM | OVCAR-8 > 100 µM | RPMI-8226 > 100 µM | U-251 > 100 µM | DU-145 > 100 µM | COLO 205 > 100 µM | NCI-H23 > 100 µM | M14 > 100 µM | SK-MEL-5 > 100 µM | NCI-H460 > 100 µM | Hs-578T > 100 µM | BT-549 > 100 µM | RXF 393 > 100 µM | NCI-H522 > 100 µM | MCF7 > 100 µM | HCC 2998 > 100 µM | UACC-62 > 100 µM | K562 > 100 µM

O=Cc1ccc(OCc2cccc(COc3ccc(/C=N\Nc4ccc([N+](=O)[O-])cc4[N+](=O)[O-])cc3)n2)cc1
inactive: HOP-62 19.6 µM | HCT-116 > 100 µM | LOX IMVI > 100 µM | OVCAR-8 61 µM | RPMI-8226 > 100 µM | U-251 63.5 µM | DU-145 > 100 µM | COLO 205 > 100 µM | NCI-H23 > 100 µM | M14 > 100 µM | SK-MEL-5 > 100 µM | NCI-H460 > 100 µM | Hs-578T > 100 µM | BT-549 > 100 µM | RXF 393 43.2 µM | NCI-H522 > 100 µM | MCF7 > 100 µM | HCC 2998 > 100 µM | UACC-62 > 100 µM | K562 > 100 µM

COc1c2ccoc2cc2oc(=O)ccc12 [BERGAPTEN]
inactive: HOP-62 > 100 µM | HCT-116 > 100 µM | LOX IMVI > 100 µM | OVCAR-8 > 100 µM | RPMI-8226 > 100 µM | U-251 67.9 µM | DU-145 > 100 µM | COLO 205 > 100 µM | NCI-H23 > 100 µM | M14 > 100 µM | SK-MEL-5 > 100 µM | NCI-H460 > 100 µM | Hs-578T 65.5 µM | BT-549 49 µM | RXF 393 > 100 µM | NCI-H522 > 100 µM | MCF7 > 100 µM | HCC 2998 > 100 µM | UACC-62 > 100 µM | K562 > 100 µM
